Results published in publication PMC4548311 (Journal of Biomolecular Structure & Dynamics, 2014).

Tests used:
R361A mutant NP = R361A mutant NP (Influenza A virus, UniProt P15682, R361A)
influenza A virus = settings: cited from earlier work

COc1ccc2cc([C@H](C)C(=O)O)ccc2c1 [Naproxen, naproxen]
stabilization of R361A monomers (R361A mutant NP): No stabilization

CCOC(=O)C1=C[C@@H](OC(CC)CC)[C@H](NC(C)=O)[C@@H](N)C1 [tamiflu]
emergence of resistant virus (influenza A virus): generated after four passages
